Experimental data from US10597388B2, “Pyridazinone herbicides” (FMC CORPORATION, priority 2014, dated 2020).

How the values were obtained:
Assay type in all cases: in vivo
[1] = system: sandbur (southem sandbur, Cenchrus echinatus); test: Test E greenhouse herbicide test, pre- and postemergence
How it was run: (§1)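 For each species, sown seed in silt loam and young plants (2 to 18 cm) in a peat/vermiculite medium were each treated with compound dissolved in surfactant-containing, non-phytotoxic solvent. After 14 to 21 d under greenhouse conditions, effects were visually rated, 100 meaning complete control.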

[2] = system: foxtail, green (green foxtail, Setaria viridis); test: as above; conditions: Preemergence
How it was run: as §1

[3] = system: velvetleaf (Abutilon theophrasti); test: as above; conditions: Preemergence
How it was run: as §1

corn (Zea mays) = test: as above
How it was run: as §1

[4] = system: dayflower (Virginia (VA) dayflower, Commelina virginica); test: as above
How it was run: as §1

[5] = system: wild poinsettia (Euphorbia heterophylla); test: as above; conditions: Postemergence
How it was run: as §1

[6] = system: waterhemp (common waterhemp, Amaranthus rudis); test: as above
How it was run: as §1

[7] = system: Italian ryegrass (Lolium multiflorum); test: as above
How it was run: as §1

kochia (Kochia scoparia) = test: as above
How it was run: as §1

[8] = system: nutsedge, yellow (yellow nutsedge, Cyperus esculentus); test: as above; conditions: Preemergence
How it was run: as §1

[9] = system: beggarticks (hairy beggarticks, Bidens pilosa); test: as above
How it was run: as §1

[10] = system: lambsquarters (Chenopodium album); test: as above; conditions: Preemergence
How it was run: as §1

[11] = system: waterhemp_RES2 (ALS & HPPD resistant common waterhemp, Amaranthus rudis); test: Test E greenhouse herbicide test, postemergence
How it was run: (§2)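 Resistant waterhemp plants grown in peat/vermiculite potting medium were sprayed postemergence at the 1- to 4-leaf stage (2–18 cm tall). After 14 to 21 d in the greenhouse, injury was visually rated against untreated controls on a 0–100 scale, where 0 is no effect and 100 is complete control.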

[12] = system: waterhemp_RES1 (ALS & Triazine resistant common waterhemp, Amaranthus rudis); test: Test E greenhouse herbicide test, postemergence
How it was run: as §2

[13] = 62 g ai/ha, Postemergence, scale 0 to 100 (0 no effect, 100 complete control)
[14] = 62 g ai/ha, Preemergence, scale 0 to 100 (0 no effect, 100 complete control)
[15] = 125 g ai/ha, Postemergence, scale 0 to 100 (0 no effect, 100 complete control)
[16] = 125 g ai/ha, Preemergence, scale 0 to 100 (0 no effect, 100 complete control)
[17] = 250 g ai/ha, Postemergence, scale 0 to 100 (0 no effect, 100 complete control)
[18] = Postemergence, 31 g ai/ha, visual, scale 0 no effect to 100 complete control
[19] = Preemergence, 31 g ai/ha, scale 0 to 100, 0 no effect, 100 complete control
[20] = Preemergence, 250 g ai/ha, visual, scale 0 no effect to 100 complete control
[21] = 62 g ai/ha, scale 0 to 100 (0 no effect, 100 complete control)
[22] = 31 g ai/ha, scale 0 to 100, 0 no effect, 100 complete control
[23] = 125 g ai/ha, visual, scale 0 no effect to 100 complete control
[24] = 250 g ai/ha, visual, scale 0 no effect to 100 complete control
[25] = 125 g ai/ha, scale 0 to 100 (0 no effect, 100 complete control)
[26] = Preemergence, 125 g ai/ha, visual, scale 0 no effect to 100 complete control
[27] = 250 g ai/ha, scale 0 to 100 (0 no effect, 100 complete control)
[28] = 31 g ai/ha, visual, scale 0 no effect to 100 complete control

Cn1nc(Br)c(O)c(-c2cccc3ccccc23)c1=O [Compound 20]
95: Plant response rating, Ryegrass, Italian [7, 14] | Plant response rating, Nutsedge, Yellow [8, 24] | Plant response rating, Beggarticks [9, 13] | Plant response rating, Beggarticks [9, 26] | Plant response rating, Lambsquarters [10, 21] | Plant response rating, Lambsquarters [10, 23]
30: Plant response rating, Sandbur [1, 15] | Plant response rating, Poinsettia, Wild [5, 25] | Plant response rating, Poinsettia, Wild [5, 27]
15: Plant response rating, Sandbur [1, 18] | Plant response rating, Corn (corn (Zea mays); [17])
85: Plant response rating, Waterhemp [6, 16] | Plant response rating, Waterhemp [6, 17] | Plant response rating, Beggarticks [9, 14] | Plant response rating, Beggarticks [9, 18]
0: Plant response rating, Sandbur [1, 14] | Plant response rating, Sandbur [1, 19] | Plant response rating, Foxtail, Green [2, 22] | Plant response rating, Velvetleaf [3, 22] | Plant response rating, Corn (corn (Zea mays); [13]) | Plant response rating, Corn (corn (Zea mays); [14]) | Plant response rating, Corn (corn (Zea mays); [15]) | Plant response rating, Corn (corn (Zea mays); [18]) | Plant response rating, Corn (corn (Zea mays); [19]) | Plant response rating, Corn (corn (Zea mays); [26]) | Plant response rating, Corn (corn (Zea mays); [20]) | Plant response rating, Dayflower, VA [4, 14] | Plant response rating, Dayflower, VA [4, 18] | Plant response rating, Dayflower, VA [4, 19] | Plant response rating, Dayflower, VA [4, 26] | Plant response rating, Dayflower, VA [4, 20] | Plant response rating, Poinsettia, Wild [5, 28] | Plant response rating, Waterhemp [6, 19] | Plant response rating, Kochia (kochia (Kochia scoparia); [19]) | Plant response rating, Nutsedge, Yellow [8, 22]
98: Plant response rating, Ryegrass, Italian [7, 16] | Plant response rating, Kochia (kochia (Kochia scoparia); [26]) | Plant response rating, Beggarticks [9, 15] | Plant response rating, Beggarticks [9, 20]
80: Plant response rating, Velvetleaf [3, 25] | Plant response rating, Waterhemp [6, 15] | Plant response rating, Ryegrass, Italian [7, 17] | Plant response rating, Waterhemp_RES1 [12, 25] | Plant response rating, Waterhemp_RES1 [12, 27]
40: Plant response rating, Sandbur [1, 17] | Plant response rating, Foxtail, Green [2, 21] | Plant response rating, Ryegrass, Italian [7, 18]
75: Plant response rating, Sandbur [1, 20] | Plant response rating, Waterhemp [6, 13] | Plant response rating, Kochia (kochia (Kochia scoparia); [15]) | Plant response rating, Nutsedge, Yellow [8, 25]
20: Plant response rating, Sandbur [1, 13] | Plant response rating, Poinsettia, Wild [5, 21] | Plant response rating, Beggarticks [9, 19]
70: Plant response rating, Foxtail, Green [2, 24] | Plant response rating, Waterhemp [6, 18] | Plant response rating, Ryegrass, Italian [7, 15] | Plant response rating, Lambsquarters [10, 22] | Plant response rating, Waterhemp_RES1 [12, 21]
10: Plant response rating, Dayflower, VA [4, 13]
60: Plant response rating, Kochia (kochia (Kochia scoparia); [18]) | Plant response rating, Waterhemp_RES2 [11, 27] | Plant response rating, Waterhemp_RES1 [12, 28]
90: Plant response rating, Ryegrass, Italian [7, 19] | Plant response rating, Kochia (kochia (Kochia scoparia); [14]) | Plant response rating, Kochia (kochia (Kochia scoparia); [17])
50: Plant response rating, Dayflower, VA [4, 15] | Plant response rating, Dayflower, VA [4, 17] | Plant response rating, Ryegrass, Italian [7, 13] | Plant response rating, Nutsedge, Yellow [8, 21] | Plant response rating, Waterhemp_RES2 [11, 28] | Plant response rating, Waterhemp_RES2 [11, 21] | Plant response rating, Waterhemp_RES2 [11, 25]
65: Plant response rating, Sandbur [1, 16] | Plant response rating, Foxtail, Green [2, 23] | Plant response rating, Velvetleaf [3, 21] | Plant response rating, Waterhemp [6, 14] | Plant response rating, Kochia (kochia (Kochia scoparia); [13])
100: Plant response rating, Velvetleaf [3, 24] | Plant response rating, Waterhemp [6, 20] | Plant response rating, Ryegrass, Italian [7, 20] | Plant response rating, Kochia (kochia (Kochia scoparia); [20]) | Plant response rating, Beggarticks [9, 17] | Plant response rating, Lambsquarters [10, 24]
